In patent US20090142364A1, “Method for finding novel peptide immunostimulatory adjuvants, compositions and methods of use” (priority 2007, published 2009):
Where a SMILES comes first, the peptide text is derived from it.

Experiments:
[1] = system: Balb/c mice peritoneal mononuclear cells (PMC); assay: Ia-antigen-inducing effect, flow cytometry, peritoneal mononuclear cells; assay type: cell-based, mouse; details: at optimal dose, overnight treatment
Procedure: (§1) We studied the Ia-antigen-inducing activity of RN-peptide by stimulation in vitro of murine peritoneal macrophages. Flow cytometry was used to assess Ia-antigen expression. […] The pyrogenicity of the peptide was studied in Wistar rats. […] The dynamics of alteration of rectal temperature were monitored during 2.5 h.
Balb/c mice peritoneal mononuclear cells (PMC) were isolated by Histopaque density gradient centrifugation. PMC or WEHI-3 cells were incubated with RN-peptide (0.1-10 μg/ml) or GMDP (positive control) or saline (negative control) in RPMI 1640 medium, supplemented with 5% fetal calf serum upon rotary mixing for 18 h at 37° C. Cells were stained on ice bath with MKD6 anti-Ia^d mAb (supernatant from the in vitro culture, 1:10 dilution) and FITC-labeled anti-mouse immunoglobulin (Sigma, USA, 1:300 dilution), and then with phycoerythrin-labeled F4/80 mAb (Caltag, USA, 0.2 μg/100 μl). Ia antigen expression was assessed by flow cytometry using EPICS “Elite” (Coulter, USA).

[2] = rat, in vivo, ip
Procedure: as §1
The pyrogenic effect SPF female Wistar rats were injected i.p. with a peptide (1.01 mg/kg; 5.74×10^−7 mole/kg) in PBS or with equal dose of GMDP (0.4 mg/kg; 5.74×10^−7 mole/kg). Rectal temperature was recorded every 5 minutes for 160 minutes using PowerLabe/4sp system with an electronic thermometer (MLT1403 Rectal Probe for Rats, AD Instruments USA). All data were quantified (mean±SEM) and compared by the variance analysis.

E. coli strain TG-1 = assay: Survival of Balb/c mice infected with E. coli strain TG-1; assay type: in vivo, mouse; details: 2 ng i.p., 6 mice at 0 h
Procedure: Groups of Balb/c mice (20-22 g) were administered i.p. with RN-peptide, or GMDP, or saline (control), and then infected i.p. with E. coli strain TG-1 cells. Two doses of E. coli cells were used—1×10^8 (LD50) and 2×10^8 (LD100). Mice were infected one day (experiment A) or seven days (experiment B) after injection of the immunomodulator. Survival of mice was assessed during three days. Results showing that RN-peptide protects mice from lethal doses of E. coli infections (Table 4).

[3] = Experiment A (infected one day after injection), 1 × 10^8 E. coli cells (LD50)
[4] = Experiment A (infected one day after injection), 2 × 10^8 E. coli cells (LD100)
[5] = Experiment B (infected seven days after injection), 1 × 10^8 E. coli cells (LD50)
[6] = Experiment B (infected seven days after injection), 2 × 10^8 E. coli cells (LD100)

CC[C@H](C)[C@H](NC(=O)[C@H](CCCCN)NC(=O)[C@H](C)NC(=O)[C@H](Cc1c[nH]cn1)NC(=O)[C@H](Cc1ccc(O)cc1)NC(=O)[C@H](CCCNC(=N)N)NC(=O)[C@@H]1CCCN1C(=O)[C@@H]1CCCN1C(=O)[C@@H](NC(=O)[C@@H](N)CCCNC(=N)N)C(C)C)C(=O)N[C@@H](CO)C(=O)N1CCC[C@H]1C(=O)N[C@@H](CCSC)C(=O)N[C@H](C(=O)N[C@@H](CC(N)=O)C(=O)O)C(C)C [RN-peptide, RVPPRYHAKISPMVN] (H-RVPPRYHAKISPMVN-OH)
increase in Ia-positive cell number [1]: 10% | increase in body temperature [2]: did not produce this effect | Number of survivors (E. coli strain TG-1; [3]): 5 | surviving mice, 24 hours after infection (E. coli strain TG-1; [3]): 6 | surviving mice, 28 hours after infection (E. coli strain TG-1; [3]): 5 | surviving mice, 72 hours after infection (E. coli strain TG-1; [3]): 5 | Number of survivors (E. coli strain TG-1; [4]): 2 | surviving mice, 24 hours after infection (E. coli strain TG-1; [4]): 5 | surviving mice, 28 hours after infection (E. coli strain TG-1; [4]): 5 | surviving mice, 72 hours after infection (E. coli strain TG-1; [4]): 2 | Number of survivors (E. coli strain TG-1; [5]): 4 | surviving mice, 24 hours after infection (E. coli strain TG-1; [5]): 6 | surviving mice, 28 hours after infection (E. coli strain TG-1; [5]): 5 | surviving mice, 72 hours after infection (E. coli strain TG-1; [5]): 4 | Number of survivors (E. coli strain TG-1; [6]): 1 | surviving mice, 24 hours after infection (E. coli strain TG-1; [6]): 3 | surviving mice, 28 hours after infection (E. coli strain TG-1; [6]): 3 | surviving mice, 72 hours after infection (E. coli strain TG-1; [6]): 1
